The target in test [1] is MdP2′GT (Malus domestica, UniProt A0A0X9XIE3). Description: Effects of metal ions and other compounds on purified MdP2′GT activity. The class given is biochemical, Malus x domestica. Also noted: key to IC50: ND: no effects detected at selected concentrations; Activator: additions increased MdP2′GT activity at selected concentrations. Conditions: for Effect of co-solvent on enzyme activity: 20% co-solvent.

In the next test the test system is T1, UGT88F1.
T1 construct: literature enzyme, MW 59 kDa
Description: Literature Km for 2′-OH glycosylation of phloretin with the UDPG/phloretin combination, quoted in the comparison table. The class given is biochemical. The settings on record: read-out: Km (μM), reported P2′GTs; cited from earlier work. From the text:
(§1) Table 5 Enzyme characters and Kinetic parameters of MdP2′GT and reported P2′GTs. | Km (μM), reported P2′GTs

A further test deals with T2, UGT71A15.
T2 construct: literature enzyme, MW 52 kDa
Described as above. The settings on record: read-out: Km (μM), reported P2′GTs; cited from earlier work. The class given is biochemical.
From the text: as §1

Test [2] concerns the target T3, MdP2′GT (Malus domestica, UniProt A0A0X9XIE3).
T3 construct: gene P2'GT
T3 sequence (A0A0X9XIE3 1-483): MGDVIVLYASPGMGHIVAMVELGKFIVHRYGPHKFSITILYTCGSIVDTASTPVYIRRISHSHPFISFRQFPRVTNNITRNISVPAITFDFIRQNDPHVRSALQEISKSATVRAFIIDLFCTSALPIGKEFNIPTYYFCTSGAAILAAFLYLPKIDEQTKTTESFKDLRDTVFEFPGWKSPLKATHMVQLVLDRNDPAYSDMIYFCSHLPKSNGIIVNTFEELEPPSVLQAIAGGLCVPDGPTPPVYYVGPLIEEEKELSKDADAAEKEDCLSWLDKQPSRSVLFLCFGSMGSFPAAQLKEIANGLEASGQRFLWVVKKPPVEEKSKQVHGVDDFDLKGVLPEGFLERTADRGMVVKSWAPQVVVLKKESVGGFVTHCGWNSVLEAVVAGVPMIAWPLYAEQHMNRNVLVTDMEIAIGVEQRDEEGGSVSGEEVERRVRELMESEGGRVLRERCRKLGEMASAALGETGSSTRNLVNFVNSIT
Put plainly: Inhibition of phloridzin formation by purified MdP2′GT from 270 uM UDPG and 20 uM phloretin, 50 mM Tris/HCl pH 7.5, 5 mM DTT, 30 °C, 30 min, product quantified by HPLC-DAD. The class given is biochemical.

Test [3] has as its target Phloretin-2′-O-glycosyltransferase of Malus x domestica (MdP2′GT) (Malus x domestica). Put plainly: SEC; Sephacryl S-300 column, 5 mg/ml purified MdP2′GT, buffer D (50 mM Tris-HCl pH 7.5, 200 mM NaCl, 5 mM DTT), calibrated with five marker proteins; native protein and protein deglycosylated with PNGase F or Endo H under native conditions; mass confirmed by MALDI-TOF. Background: In gel filtration, larger molecules generally elute earlier.

[4] abbreviates: addition at 0.5 mM, compared to a control in which none is added.
[5] abbreviates: addition at 5 mM, compared to a control in which none is added.
Where [6] appears, read: concentration of inhibitor required to reduce the original MdP2′GT activity by 50%, read-out: IC50.
Where [7] appears, read: 0.5 h, pH 7.5, addition at 5 mM, compared to a control in which none is added, read-out: Relative activity.
[8] abbreviates: concentration of inhibitor required to reduce the original MdP2′GT activity by 50%.

We go through 32 molecules from paper PMC5059724, “Purification and characterization of a novel phloretin-2′-O-glycosyltransferase favoring phloridzin biosynthesis” (Scientific Reports, 2016).

`[Cl][Ni][Cl]` [NiCl2]: the Relative activity result at MdP2′GT [1] (setting [4]) is reported as “negligibly affected”; at MdP2′GT [1] (setting [5]), 98.26 ± 2.08%. `[Cl-].[Cl-].[Co+2]` [CoCl2]: on MdP2′GT [1] (read-out: IC50), the IC50 is 50 ± 10 µM. For the molecule `O=C(CCc1ccc(O)c(O)c1)c1c(O)cc(O)cc1O[C@@H]1O[C@H](CO)[C@@H](O)[C@H](O)[C@H]1O` [3-hydroxyphloridzin, 3-hydroxyphloridzin], the Relative activity on MdP2′GT [1] (setting [5]) stood at 15.65 ± 0.58%. For the molecule `CCN1C(=O)C=CC1=O` [N-Ethylmaleimide], the activity at 1000 µM at MdP2′GT [1] (0.5 h, pH 7.5, addition at 1 mM, compared to a control in which none is added, read-out: Relative activity) was found to be 20.5 ± 1.08%. Further, the Relative activity entry on MdP2′GT [1] (addition at 1 mM, compared to a control in which none is added) is recorded as “strong inhibition”. Further, the IC50 on MdP2′GT [1] (setting [6]) amounted to 280 ± 10 µM. Turning to `C[S+](C)[O-]` [Dimethyl sulfoxide], the “Effect of co-solvent on enzyme activity” value at MdP2′GT [1] is “no effects”. On MdP2′GT [1] (addition at 704 mM, compared to a control in which none is added), the Relative activity came to 99.54 ± 1.40%. For the molecule `OCCS` [β-mercaptoethanol], the Relative activity on MdP2′GT [1] (setting [5]) was 99.02 ± 1.47%; on MdP2′GT [1] (addition at 5 mM, compared to a control in which none is added, listed as β-ME) it was “No obvious effects”. `OCC(O)CO` [Glycerol]: the activity at 686000 µM on MdP2′GT [1] (0.5 h, pH 7.5, addition at 686 mM (text: 5% glycerol), compared to a control in which none is added, read-out: Relative activity) worked out at 98.1 ± 2.15%. For the same molecule, on MdP2′GT [1] (addition at 686 mM (text: 5% glycerol), compared to a control in which none is added), the Relative activity result is “No obvious effects”.

As to `O=C(CCc1ccc(O)cc1)c1c(O)cc(O)cc1O` [Phloretin, phloretin], the Km with UGT88F1 is 0.62 µM; in the test with UGT71A15 it was 82 µM. Regarding `NCCc1ccc(S(=O)(=O)F)cc1` [AEBSF, 4-(2-Aminoethyl) benzenesulfonyl fluoride], the Relative activity entry is given as “No obvious effects” at MdP2′GT [1] (setting [4]) and 99.51 ± 2.36% on MdP2′GT [1] (addition at 0.5 mM, compared to a control in which none is added, 30 min, 500 µM). Turning to `[Ca+2].[Cl-].[Cl-]` [CaCl2], the Relative activity is given as 54.21 ± 1.05% on MdP2′GT [1] (setting [5]) and “partially inhibited” on MdP2′GT [1] (addition at 5 mM, compared to a control in which none is added, listed as Ca^2+). Moreover, the IC50 on MdP2′GT [1] (setting [6]) stood at 5500 ± 120 µM. For the molecule `O=C(CCc1ccc(O)cc1)c1c(O)cc(O[C@@H]2O[C@H](CO)[C@@H](O)[C@H](O)[C@H]2O)cc1O` [Trilobatin], the Relative activity at MdP2′GT [1] (setting [5]) amounted to 21.70 ± 1.15%. For `CO` [Methanol], the “Effect of co-solvent on enzyme activity” value at MdP2′GT [1] is “no effects”. Moreover, at MdP2′GT [1] (addition at 1236 mM, compared to a control in which none is added), the Relative activity was 99.23 ± 1.41%. `[Ba+2].[Cl-].[Cl-]` [BaCl2]: the Relative activity result is on record as “negligibly affected” at MdP2′GT [1] (setting [4]) and 99.03 ± 2.54% on MdP2′GT [1] (setting [5]). For the molecule `O=c1ccn([C@@H]2O[C@H](CO)[C@@H](O)[C@H]2O)c(=O)[nH]1` [Uridine], the activity at 5000 µM at MdP2′GT [1] (setting [7]) was 98.2 ± 2.12%. Take `[Cl-].[Na+]` [NaCl, Sodium chloride]: the Relative activity on MdP2′GT [1] (addition at 500 mM, compared to a control in which none is added) is 100 ± 1.00%; at MdP2′GT [1] (addition at 500 mM, compared to a control in which none is added, listed as Sodium chloride), “no obvious inhibitory effects”. `[Cl-].[Cl-].[Mg+2]` [MgCl2]: the Relative activity stood at 130.35 ± 3.53% at MdP2′GT [1] (addition at 2 mM, compared to a control in which none is added) and 130% at MdP2′GT [1] (addition at 2 mM, compared to a control in which none is added, listed as Mg^2+). Also, the IC50 result at MdP2′GT [1] (setting [8]) is “Activator”. As to `O=c1ccn([C@@H]2O[C@H](COP(=O)(O)OP(=O)(O)O)[C@@H](O)[C@H]2O)c(=O)[nH]1` [UDP, uridine diphosphate], the IC50 on MdP2′GT [2] (read-out: IC50/) amounted to 100 ± 10 µM. With `O=C(CCc1ccc(O)cc1)c1c(O)cc(O[C@@H]2O[C@H](CO)[C@@H](O)[C@H](O)[C@H]2O)cc1O` [Trilobatin, trilobatin], at MdP2′GT [2] (read-out: IC50/), the IC50 came to 3000 ± 210 µM. Take `[Cl-].[K+]` [KCl]: the Relative activity entry at MdP2′GT [1] (setting [4]) was “negligibly affected”; on MdP2′GT [1] (setting [5]) it was 99.58 ± 2.31%. Turning to `[Cl][Fe]([Cl])[Cl]` [FeCl3], the IC50 on MdP2′GT [1] (setting [6]) amounted to 6500 ± 230 µM. On to `O[C@@H](CS)[C@@H](O)CS` (racemic) [Dithiothreitol], for which, at MdP2′GT [1] (setting [7]), the activity at 5000 µM was 99.2 ± 1.43%. Besides, on MdP2′GT [1] (setting [5]), the Relative activity result is “No obvious effects”. In the case of `O=c1ccn([C@@H]2O[C@H](COP(=O)(O)O)[C@@H](O)[C@H]2O)c(=O)[nH]1` [UMP, uridine monophosphate], on MdP2′GT [2] (read-out: IC50/), the IC50 was 4000 ± 130 µM. In addition, on MdP2′GT [1] (setting [5]), the Relative activity is listed as 38.25 ± 1.07%. Take `O=C(CCc1ccc(O)c(O)c1)c1c(O)cc(O)cc1O[C@@H]1O[C@H](CO)[C@@H](O)[C@H](O)[C@H]1O` [3-hydroxyphloridzin]: on MdP2′GT [2] (read-out: IC50/), the IC50 was 2500 ± 200 µM. On to p-hydroxymercuribenzoate, for which the IC50 on MdP2′GT [1] (setting [6]) was determined as 240 ± 70 µM.

As to `O=c1ccn([C@@H]2O[C@H](COP(=O)(O)OP(=O)(O)OP(=O)(O)O)[C@@H](O)[C@H]2O)c(=O)[nH]1` [UTP, uridine triphosphate], the IC50 at MdP2′GT [1] (setting [6]) came out at 2500 ± 100 µM. The molecule `O=C(O)c1cc[c]([Hg+])cc1` [p-hydroxymercuribenzoate, p-hydroxymercuribenzoate (PHMB)] gave an IC50 against MdP2′GT [2] of 240 ± 70 µM. `[Cl][Cu][Cl]` [CuCl2]: the Relative activity at MdP2′GT [1] (setting [5]) was 0.00 ± 0.00%; on MdP2′GT [1] (addition at 5 mM, compared to a control in which none is added, listed as Cu^2+), “completely inhibited”. Also, the IC50 at MdP2′GT [1] (setting [6]) came to 10 ± 10 µM. Consider “Phloretin-2′-O-glycosyltransferase of Malus x domestica (MdP2′GT) (enzyme)”, for which, in test [3], the stoichiometry N is 2. For the molecule `O=S(=O)([O-])[O-].[Mn+2]` [MnSO4], the Relative activity is given as 47.41 ± 1.13% on MdP2′GT [1] (setting [5]) and “partially inhibited” on MdP2′GT [1] (addition at 5 mM, compared to a control in which none is added, listed as Mn^2+). For the same molecule, the IC50 at MdP2′GT [1] (setting [6]) was found to be 4500 ± 110 µM. As to `O=c1ccn([C@@H]2O[C@H](CO[P@@](=O)(O)O[P@@](=O)(O)OP(=O)(O)O)[C@@H](O)[C@H]2O)c(=O)[nH]1` (stereo in doubt) [UTP, uridine triphosphate], the activity at 5000 µM on MdP2′GT [1] (setting [7]) turned out to be 3.05 ± 0.26%. Consider `O=S(=O)([O-])[O-].[Fe+2]` [FeSO4], for which the Relative activity at MdP2′GT [1] (setting [5]) is listed as 119.43 ± 3.61%. For the same molecule, the IC50 entry against MdP2′GT [1] (setting [8]) is on record as “Activator”. For `[Cl][Al]([Cl])[Cl]` [AlCl3], the Relative activity on MdP2′GT [1] (setting [5]) is given as 67.81 ± 1.03%; at MdP2′GT [1] (addition at 5 mM, compared to a control in which none is added, listed as Al^3+) it was “partially inhibited”. Also, the IC50 at MdP2′GT [1] (setting [6]) is 8000 ± 500 µM.

Usually Km stands for the substrate concentration at which the rate is half of its maximum. For orientation: stoichiometry N means a count of units in the complex or per binding partner.
